Test results: patent US20230310445A1, “LOX ENZYME INHIBITING METHODS AND COMPOSITIONS” (ANOVIA BIOSCIENCES, INC., priority 2020, published 2023)

Experiments:
[1] = biological target: T1, Recombinant human LOXL2 (lysyl oxidase like 2) (Homo sapiens, UniProt Q9Y4K0); experiment: LOXL2 inhibition assay (fluorometric, cadaverine/Amplex Red/HRP); assay type: biochemical; settings: IC50 class; recombinant human LOXL2, cadaverine substrate; read-out: Activity Range LOXL2
T1 construct: purchased R&D systems
T1 sequence (Q9Y4K0 26-774): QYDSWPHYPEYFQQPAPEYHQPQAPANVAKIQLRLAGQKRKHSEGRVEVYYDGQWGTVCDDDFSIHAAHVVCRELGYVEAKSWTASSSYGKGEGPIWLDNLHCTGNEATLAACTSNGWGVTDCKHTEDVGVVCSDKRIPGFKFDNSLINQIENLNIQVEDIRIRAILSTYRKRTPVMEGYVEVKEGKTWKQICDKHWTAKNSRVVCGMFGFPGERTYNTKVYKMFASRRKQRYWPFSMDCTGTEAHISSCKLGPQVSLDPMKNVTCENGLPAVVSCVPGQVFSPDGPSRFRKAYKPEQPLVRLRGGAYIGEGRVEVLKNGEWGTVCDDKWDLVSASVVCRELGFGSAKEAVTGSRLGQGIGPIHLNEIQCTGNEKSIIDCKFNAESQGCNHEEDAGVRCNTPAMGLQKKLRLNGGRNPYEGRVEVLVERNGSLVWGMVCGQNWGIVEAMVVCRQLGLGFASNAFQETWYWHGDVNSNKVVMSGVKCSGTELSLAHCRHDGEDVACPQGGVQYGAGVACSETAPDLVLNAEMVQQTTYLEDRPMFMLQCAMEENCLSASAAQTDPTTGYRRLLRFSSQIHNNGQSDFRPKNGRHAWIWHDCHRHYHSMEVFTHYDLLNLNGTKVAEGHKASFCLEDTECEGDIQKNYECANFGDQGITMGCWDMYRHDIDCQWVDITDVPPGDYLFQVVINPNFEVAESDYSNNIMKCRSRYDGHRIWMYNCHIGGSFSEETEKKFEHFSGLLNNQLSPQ
Outline: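 Both enzymes assayed in 1.2 M urea, 50 mM sodium borate pH 8.0, 10 mM CaCl, with 30 min compound–enzyme preincubation at 37° C before cadaverine/Amplex Red/HRP addition. Fluorescence followed 60 min at 37° C; linear-slope rates, background-subtracted, as % of DMSO control, fitted by 4-parameter variable-slope curve (bottom fixed at 0).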

[2] = biological target: T2, Recombinant human LOXL3 (lysyl oxidase like 3) (Homo sapiens, UniProt P58215); experiment: LOXL3 inhibition assay (fluorometric, cadaverine/Amplex Red/HRP); assay type: biochemical; settings: IC50 class; recombinant human LOXL3, cadaverine substrate; read-out: Activity Range LOXL3
T2 construct: purchased R&D systems
T2 sequence (P58215 26-753): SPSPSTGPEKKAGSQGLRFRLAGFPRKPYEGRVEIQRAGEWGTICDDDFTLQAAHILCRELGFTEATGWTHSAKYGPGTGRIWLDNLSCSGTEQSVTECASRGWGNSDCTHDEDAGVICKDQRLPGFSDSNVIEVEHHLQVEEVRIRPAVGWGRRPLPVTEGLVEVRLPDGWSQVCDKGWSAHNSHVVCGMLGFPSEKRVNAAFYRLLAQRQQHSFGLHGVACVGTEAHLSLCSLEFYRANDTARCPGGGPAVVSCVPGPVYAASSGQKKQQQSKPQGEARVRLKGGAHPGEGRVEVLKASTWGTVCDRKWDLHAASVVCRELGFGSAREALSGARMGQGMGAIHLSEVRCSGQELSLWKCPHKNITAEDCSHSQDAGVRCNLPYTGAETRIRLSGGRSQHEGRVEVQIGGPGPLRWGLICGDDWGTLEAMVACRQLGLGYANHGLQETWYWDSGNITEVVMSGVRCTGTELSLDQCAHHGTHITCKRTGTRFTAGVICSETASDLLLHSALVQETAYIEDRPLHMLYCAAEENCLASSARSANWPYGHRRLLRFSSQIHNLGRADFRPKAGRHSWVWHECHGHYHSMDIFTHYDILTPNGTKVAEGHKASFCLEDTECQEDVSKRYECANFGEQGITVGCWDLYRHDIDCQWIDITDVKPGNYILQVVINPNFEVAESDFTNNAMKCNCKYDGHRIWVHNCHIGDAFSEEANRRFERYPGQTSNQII
Description: The ability of compounds to inhibit one or more of the lysyl oxidases LOXL2 and/or LOXL3 was determined using a fluorometric assay. This assay measures the activity of lysyl oxidases by coupling the reaction with horseradish peroxidase-catalyzed […]. The activity assay protocol uses cadaverine as substrate that releases hydrogen peroxide upon transformation by the specific LOX family enzyme present in the sample. Hydrogen peroxide is in turn detected using a red fluorescence substrate for HRP-coupled reactions (Amplex Red Enzyme Assays, Thermo Scientific Fisher). This leads to increase in fluorescence that can be easily detected at Ex/Em=540/590 nm in a fluorescence microplate reader.
Enzymes: Recombinant human LOXL2 (lysyl oxidase like 2) and recombinant human LOXL3 (lysyl oxidase like 3) were purchased from R&D systems and assays were performed in 1.2 M urea, 50 mM sodium borate buffer pH 8.0, and 10 mM CaCl.
Reaction: Final concentration in the LOXL2 and LOXL3 assays were as following and performed in a total volume of […]:
Experimental procedure: 5 μl of freshly prepared reaction buffer were delivered to reaction wells. Compounds were resuspended in 100% DMSO at 10 mM and delivered into buffer using acoustic technology (Echo550; nanoliter range). A 3× solution of LOXL2 or LOXL3 in reaction buffer was prepared (“enzyme solution”) and 5 μL of enzyme solution was added into the reaction wells. Buffer only was added to column 1 for no protein control. Reactions were incubated for 30 minutes at 37° C. A 3×mixture of cadaverine, Amplex Red, and HRP (“Substrate/Detection Mix) was prepared and subsequently 5 μL of the mixture added to each reaction well. Progress of reactions was monitored for 60 minutes at 37° C. using Clariostar plate reader (ex 530-12, ems 600-40). For all activity assays, pan-LOX inhibitor CCT365623 (Tang et al, 2017) and LOXL2/LOXL3 inhibitor PAT-1251 (PharmaKea) were included as standards.
Data analysis: Slope of the linear portion of the progress curve was calculated using Clariostar software. Typical analysis interval was between 8-30 min, but varied between experiments. The background subtracted signals (No protein wells are considered as background) were converted to % activity relative to DMSO controls. Data was analyzed using GraphPad Prism 4 with “sigmoidal dose-response (variable slope)”; 4 parameters with Hill Slope. Constraints: Bottom=Constant equal to 0. Top=Must be less than 120.

Row | SMILES | IC50 [1] [µM] | IC50 [2] [µM]
1 | NCc1cccc(S(=O)(=O)N2C[C@@H](C(=O)N3CCS(=O)(=O)CC3)C[C@@H](c3ccccc3)C2)n1 (racemic) [Example 115, cis-(1-((6-(Aminomethyl)pyridin-2-yl)sulfonyl)-5-phenylpiperidin-3-yl)(1,1-dioxidothiomorpholino)methanone 2,2,2-trifluoroacetate] | > 30 | > 30
2 | NCc1cccc(S(=O)(=O)N2C[C@H](C(=O)N3CCOCC3)C[C@@H](c3ccccc3)C2)n1 (racemic) [Example 114T, trans-(1-((6-(Aminomethyl)pyridin-2-yl)sulfonyl)-5-phenylpiperidin-3-yl)(morpholino)methanone 2,2,2-trifluoroacetate] | 1 to 30 | > 30
